Assay results taken from the NIST ThermoML archive (doi:10.1016/j.jct.2015.05.014).
± gives the expanded uncertainty stated by the source.

Assay: activity coefficient (dimensionless); of the first substance listed, at infinite dilution; xn = mol fraction of the nth substance listed
Conditions: 100 kPa, Liquid, Chromatography, x1 = 0

| Structure (SMILES) | activity coefficient (318.15 K) | activity coefficient (328.15 K) | activity coefficient (338.15 K) | activity coefficient (348.15 K) | activity coefficient (358.15 K) | activity coefficient (368.15 K) | activity coefficient (378.15 K) | activity coefficient (308.15 K) | activity coefficient (388.15 K) | activity coefficient (398.15 K) | activity coefficient (408.15 K) |
| --- | --- | --- | --- | --- | --- | --- | --- | --- | --- | --- | --- |
| CCOC(C)=O [ethyl acetate] + CC(O)C(=O)[O-].CC[N+]1(C)CCCC1 | 5.04 ± 0.43 | 5.14 ± 0.44 | 5.23 ± 0.45 | 5.32 ± 0.46 | 5.43 ± 0.47 | 5.56 ± 0.48 | 5.66 ± 0.49 |  |  |  |  |
| C1CCOC1 [tetrahydrofuran] + CC(O)C(=O)[O-].CC[N+]1(C)CCCC1 | 3.54 ± 0.31 | 3.59 ± 0.31 | 3.62 ± 0.31 | 3.68 ± 0.32 | 3.74 ± 0.32 | 3.82 ± 0.33 |  | 3.51 ± 0.3 |  |  |  |
| Cc1ccccc1 [toluene] + CC(O)C(=O)[O-].CC[N+]1(C)CCCC1 | 5.36 ± 0.46 | 5.5 ± 0.47 | 5.62 ± 0.48 | 5.76 ± 0.5 | 5.89 ± 0.51 | 6.06 ± 0.52 |  |  |  |  |  |
| CCCC(C)=O [pentan-2-one] + CC(O)C(=O)[O-].CC[N+]1(C)CCCC1 | 4.7 ± 0.41 | 4.78 ± 0.41 | 4.85 ± 0.42 | 4.93 ± 0.43 | 5.01 ± 0.43 | 5.14 ± 0.44 |  |  |  |  |  |
| CCC(=O)OC [methyl propanoate] + CC(O)C(=O)[O-].CC[N+]1(C)CCCC1 | 4.71 ± 0.41 | 4.79 ± 0.41 | 4.88 ± 0.42 | 4.97 ± 0.43 | 5.06 ± 0.44 | 5.22 ± 0.45 | 5.32 ± 0.46 |  |  |  |  |
| C1CCCC1 [cyclopentane] + CC(O)C(=O)[O-].CC[N+]1(C)CCCC1 | 29.7 ± 2.6 | 28.2 ± 2.4 | 26.9 ± 2.3 | 25.7 ± 2.2 | 24.7 ± 2.1 | 23.5 ± 2 |  | 31.7 ± 2.7 |  |  |  |
| C1=CCCCC1 [cyclohexene] + CC(O)C(=O)[O-].CC[N+]1(C)CCCC1 | 21.7 ± 1.9 | 20.7 ± 1.8 | 20.2 ± 1.7 | 19.7 ± 1.7 | 19.5 ± 1.7 | 18.9 ± 1.6 |  | 22.4 ± 1.9 |  |  |  |
| COC(C)(C)C [2-methoxy-2-methylpropane] + CC(O)C(=O)[O-].CC[N+]1(C)CCCC1 | 18 ± 1.6 | 17.9 ± 1.5 | 17.9 ± 1.5 | 17.8 ± 1.5 | 17.7 ± 1.5 | 17.7 ± 1.5 |  | 18.1 ± 1.6 |  |  |  |
| CCOCC [diethyl ether] + CC(O)C(=O)[O-].CC[N+]1(C)CCCC1 | 15.6 ± 1.3 | 15.5 ± 1.3 | 15.1 ± 1.3 | 15 ± 1.3 | 15.1 ± 1.3 | 14.9 ± 1.3 |  | 15.8 ± 1.4 |  |  |  |
| CCCCCCCCC [nonane] + CC(O)C(=O)[O-].CC[N+]1(C)CCCC1 | 474 ± 41 | 423 ± 37 | 389 ± 34 | 358 ± 31 | 326 ± 28 | 297 ± 26 |  | 518 ± 45 |  |  |  |
| c1ccccc1 [benzene] + CC(O)C(=O)[O-].CC[N+]1(C)CCCC1 | 2.85 ± 0.25 | 2.94 ± 0.25 | 3.04 ± 0.26 | 3.14 ± 0.27 | 3.24 ± 0.28 | 3.36 ± 0.29 |  |  |  |  |  |
| C=CCCCCCCCC [1-decene] + CC(O)C(=O)[O-].CC[N+]1(C)CCCC1 | 326 ± 28 | 302 ± 26 | 284 ± 25 | 268 ± 23 | 252 ± 22 | 238 ± 21 |  | 349 ± 30 |  |  |  |
| CC(C)CC(C)(C)C [2,2,4-trimethylpentane] + CC(O)C(=O)[O-].CC[N+]1(C)CCCC1 | 242 ± 21 | 220 ± 19 | 201 ± 17 | 187 ± 16 | 173 ± 15 | 161 ± 14 |  | 270 ± 23 |  |  |  |
| CCCO [propan-1-ol] + CC(O)C(=O)[O-].CC[N+]1(C)CCCC1 |  |  |  |  | 0.236 ± 0.032 | 0.256 ± 0.033 | 0.277 ± 0.034 |  | 0.302 ± 0.035 | 0.327 ± 0.036 | 0.349 ± 0.037 |
| COC(C)=O [methyl ethanoate] + CC(O)C(=O)[O-].CC[N+]1(C)CCCC1 | 2.95 ± 0.25 | 3.03 ± 0.26 | 3.1 ± 0.27 | 3.18 ± 0.27 | 3.25 ± 0.28 | 3.37 ± 0.29 | 3.45 ± 0.3 |  |  |  |  |
| CCC(C)CC [3-methylpentane] + CC(O)C(=O)[O-].CC[N+]1(C)CCCC1 | 111 ± 10 | 102 ± 9 | 94.5 ± 8.2 | 88.7 ± 7.7 | 83.5 ± 7.2 | 78.4 ± 6.8 |  | 122 ± 11 |  |  |  |
